In patent US20110269777A1, “METHODS AND COMPOSITIONS FOR TREATING SCHIZOPHRENIA USING ANTIPSYCHOTIC COMBINATION THERAPY” (Medivation Neurology, Inc., priority 2007, published 2011):
Structures can show the parent of a compound that is named as a salt.

Experiments:
[1] = system: NMDA-induced currents in cultured rat hippocampus neurons (NMDA receptors); experiment: NMDA-induced current blocking, patch clamp, whole cell configuration; type: cell-based; conditions: for Effect on the blocking effect of MK-801 on NMDA-induced currents: preliminary application before MK-801
Experimental: Experiments were carried out by the patch clamp method on freshly isolated neurons of a rat brain cortex or on cultured rat hippocampus neurons. Neurons for cultivation were obtained from the hippocampus of neonatal rats (1-2 days) by the method of trypsinization followed by pipetting. Cells suspended in culture medium were placed in 3 mL quantities into the wells of a 6-well planchette (Nunc) or into Petri dishes, in which glasses coated with poly-L-lysine had first been placed. The cell concentration as a rule was […]. The culture medium consisted of Eagle's minimum medium and a DME/F12 medium (1:1) supplemented with 10% calf serum, 2 mM glutamine, 50 μg/mL gentamycin, 15 mM glucose and 20 mM KCl, with the pH brought to between 7.0 and 7.4 using NaHCO3. Planchettes containing cultures were placed in a CO2— incubator at 37° C. and 100% humidity. Cytosine arabinoside (10-20 μL) was added on the second to third day of cultivation. After 6-7 days of cultivation 1 mg/mL glucose was added to the medium, or the medium was exchanged, depending on the following experiment. The cultured hippocampus neurons were placed in a 0.4 mL working chamber. The working solution had the following composition: 150.0 mM NaCl, 5.0 mM KCl, 2.6 mM CaCl2, 2.0 mM MgSO4×7H2O, 10 mM HEPES, and 15.0 mM Glucose, at pH 7.36.
Transmembrane currents produced by application of NMDA were registered by the patch clamp electrophysiological method in the whole cell configuration. Application of substances was done by the method of rapid superfusion. Currents were registered with the aid of borosilicate microelectrodes (resistance […]) filled with the following composition: 100.0 mM KCl, 11.0 mM EGTA, 1.0 mM CaCl2, 1.0 mM MgCl2, 10.0 mM HEPES, and 5.0 mM ATP, at pH 7.2. An EPC-9 instrument (HEKA, Germany) was used for registration. Currents were recorded on the hard disk of a Pentium-IV PC using the pulse program, which is also purchased from HEKA. The results were analyzed with the aid of the Pulsefit program (HEKA).

[2] = system: patients with schizophrenia, paranoid type
[3] = system: patients with schizophrenia, paranoid type; experiment: Double-blind placebo-controlled clinical study, efficacy assessment scales (PANSS, CGI, Calgary, NSA-16); type: in vivo, human
Experimental: (§1) A double-blind, placebo-controlled clinical study was conducted to evaluate the effect of a combination therapy of risperidone (3-[2-[4-(6-fluoro-1,2-benzoxazol-3-yl)piperidin-1-yl]ethyl]-2-methyl-6,7,8,9-tetrahydropyrido[2,1-b]pyrimidin-4-one) plus dimebon (2,8-dimethyl-5-(2-(6-methyl-3-pyridyl)ethyl)-2,3,4,5-tetrahydro-1H-pyrido[4,3-b]indole dihydrochloride) for treatment of chronic schizophrenia compared to risperidone treatment alone. The treatment trial was designed as randomized placebo-controlled, double-blind study of 60 patients meeting diagnostic criteria for schizophrenia, paranoid type, and episodic course (DSM IV-295.30).
(§2) The study included 60 patients with a diagnosis of continuous paranoid and episodic-progressive schizophrenia with a current condition of drug remission or development of drug remission, without regard to the syndrome determining the current mental status. […] According to DSM-IV, these patients met criteria 295.30, schizophrenia, paranoid type, […]. Patients were selected to participate in the study according to the following criteria: (1) inclusion criteria: male patients, 18 year old or older, schizophrenia, paranoid type, and episodic course in remission or partial remission and responders or partial responders to risperidone; and (2) exclusion criteria: excitement, impulsiveness or aggressive behavior (more than moderate), non-responders to antipsychotic treatment including risperidone, having mental disorders other than (or in addition to) schizophrenia, necessity of other treatment and severe acute somatic diseases or decompensated chronic somatic diseases.
(§3) In the first stage of the study (2 weeks), patients who provide an informed consent for participation in the study and who met the inclusion/exclusion criteria were switched to monotherapy with risperidone (dose adjustment of risperidone in range from 2 mg to 6 mg per day), and the clinical stability of the patients was evaluated weekly over two weeks. […] Again, clinical stability of the study participants was evaluated weekly for four weeks. In the third stage (8 weeks), after 4 weeks of monotherapy with risperidone, patients were divided into two groups. Group 1 received dimebon, (20 mg three times daily, n=23) in addition to risperidone therapy. Group 2 received a placebo (n=24) in addition to risperidone therapy. Again, clinical stability of the study participants was evaluated weekly for eight weeks. In the fourth stage (follow-up period), 6 months after completion of therapy within the framework of the protocol, the stability of the characteristics achieved in the course of the study were evaluated. In the fourth stage, clinical stability of the study participants was evaluated monthly for six months.
(§4) The study was conducted as follows. The patients were evaluated clinically and by psychopathological (descriptive) methods during every visit. The patients were evaluated according to the psychometric method at the end of the first period, at the end of the second period, after 4 weeks of the third period and at the end of the third period using the following criteria (A) Efficacy assessment scales such as (1) Positive and Negative Syndrome Scale (PANSS scale; Kay, S. R., Fiszbein, A., and Opler, L. A., Schizophrenia Bulletin 13(2):261-76 (1987)); (2) Clinical Global Impression-Severity (CGI-S) and Clinical Global Impression-Improvement (CGI-I); (3) Calgary depression rating scale (Addington, D., Addington, J., and Maticka-Tyndale E., British J. Psych. Suppl. 22:39-44 (1993)); and (4) Negative Symptoms Assessment-16 (NSA-16) (Alphs, L., Summerfelt, A., Lann, H., and Muller, R. J., Psychopharm. Bull. 25:159-163 (1989)); and (B) Safety scales such as (1) the Barnes Akathisia Rating Scale (BARS) (Barnes, T. R., British J. Psych. 154:672-676 (1989)); and (2) the Simpson-Angus Rating Scale (SARS) (Simpson, G. N. and Angus, J. W. S., Acta Psych. Scand. 212(suppl. 44):11-19 (1970)). […]

[4] = system: patients with schizophrenia, paranoid type; experiment: Double-blind placebo-controlled clinical study, neurocognitive assessment tests; type: in vivo, human
Experimental: as §1, §2, §3, §4

[5] = end (8 weeks dimebon 20 mg three times daily + risperidone)
[6] = start (before adding dimebon to risperidone)
[7] = end (8 weeks dimebon + risperidone)

Structure (SMILES): N[C@H](CCCP(=O)(O)O)C(=O)O [D-AP5, D-2-amino-5-phosphonovaleric acid, reference compound]
- Effect on the blocking effect of MK-801 on NMDA-induced currents [1]: did not decrease

Structure (SMILES): Cc1ccc2c(c1)c1c(n2CCc2ccc(C)nc2)CCN(C)C1 [Dimebon, 2,8-dimethyl-5-[2-(6-methylpyridyl-3)ethyl]-2,3,4,5-tetrahydro-1H-pyrido[4,3-b]indole dihydrochloride]
- safety issues ([2]; dimebon 20 mg three times daily + risperidone, 8 weeks): no safety issues
- BARS and SARS safety scales, difference between study groups ([2]; dimebon group vs placebo group): no differences
- Blockade of NMDA-induced currents (%) ([1]; at 10 μM, cultured rat hippocampus neurons): By 50-70% at 10 μM
- IC50 ([1]; average, read-out: IC50, blocking of currents caused by application of NMDA): 7.7 ± 1.9 µM
- Effect on the blocking effect of MK-801 on NMDA-induced currents [1]: capable of reducing
- total PANSS score relative to placebo ([3]; adjunctive dimebon on background risperidone therapy): significant reduction
- % improvement [3, 5]: 8.14 ± 49.4%
- CGI I [3, 5]: 2.7 ± 1.0
- CGI-S [3, 5]: 3.9 ± 1.2
- Calgary scale of depression [3, 5]: 8.1 ± 9.97
- NSA-16 [3, 5]: 48.5 ± 22.7
- PANSS general psychopathol [3, 5]: 31.4 ± 11.1
- PANSS negative [3, 5]: 18.48 ± 7.01
- PANSS positive [3, 5]: 12.0 ± 5.9
- PANSS total [3, 5]: 61.9 ± 22.2
- CGI-S [3, 6]: 4.3 ± 1
- Calgary scale of depression [3, 6]: 11.6 ± 11.6
- NSA-16 [3, 6]: 64.65 ± 22.8
- PANSS general psychopathol [3, 6]: 39.1 ± 8.1
- PANSS negative [3, 6]: 22.5 ± 5.15
- PANSS positive [3, 6]: 16.9 ± 4.6
- PANSS total [3, 6]: 78.5 ± 14.1
- verbal associative memory, psychomotor speed, visual-spatial memory and number aspects of executive functioning ([4]; dimebon group, start to end of 8 weeks on risperidone background): significant improvement
- Benton test: sum error [4, 7]: 6.5 ± 4.4
- Benton test: sum reconst [4, 7]: 6 ± 2.21
- Bourdohn test: attention concentration [4, 7]: 0.986 ± 0.013
- Bourdohn test: attention productivity [4, 7]: 497 ± 170
- Bourdohn test: attention stability [4, 7]: 0.009 ± 0.006
- CAT: correct answer account [4, 7]: 37 ± 8.2
- CAT: reaction time [4, 7]: 630.17 ± 195.55
- Schulte tables: sum time [4, 7]: 166 ± 64
- Text 1 Reconstruction 1. quantity of elements [4, 7]: 7 ± 2.6
- Text 2 Reconstruction 1 quantity of elements [4, 7]: 9 ± 3.0
- Tower of London - correct score [4, 7]: 3.26
- Tower of London - execution time [4, 7]: 234 ± 115
- Tower of London - sum total time > 60 sec [4, 7]: 0 ± 1.5
- Tower of London -move score [4, 7]: 34 ± 19
- Wechsler memory scale, subtest V: series A [4, 7]: 6 ± 0.9
- Wechsler memory scale, subtest V: sum A and B [4, 7]: 9.5 ± 2.7
- Wechsler memory scale, subtest V: sum A and B, (T-scores) [4, 7]: 8 ± 2.3
- Wechsler memory scale, subtest VII: sum comlex [4, 7]: 4.5 ± 3.34
- Wechsler memory scale, subtest VII: sum simple [4, 7]: 17 ± 2.9
- Wechsler memory scale, subtestV: series B [4, 7]: 4 ± 0.9
- Wechsler test, subtest VII: Symbol coding [4, 7]: 6 ± 1.4
- Wisconsin CS test - conceptual level responses, T score [4, 7]: 44 ± 6.7
- Wisconsin CS test - nonperseverative errors, T score [4, 7]: 43 ± 9.6
- Wisconsin CS test - perseverative responses, T score [4, 7]: 45 ± 5.53
- Wisconsin CS test - total error - T score [4, 7]: 43 ± 8.1
- Wisconsin CS test perseverative errors, T score [4, 7]: 44 ± 5.6
- Wisconsin CS test: categories completed [4, 7]: 5 ± 1.9
- Wisconsin CS test: total correct responses [4, 7]: 78 ± 14
- Benton test: sum error [4, 6]: 8 ± 3.8
- Benton test: sum reconst [4, 6]: 5 ± 1.7
- Bourdohn test: attention concentration [4, 6]: 0.975 ± 0.03
- Bourdohn test: attention productivity [4, 6]: 399 ± 123
- Bourdohn test: attention stability [4, 6]: 0.01 ± 0.01
- CAT: correct answer account [4, 6]: 35 ± 8.5
- CAT: reaction time [4, 6]: 606.74±
- Schulte tables: sum time [4, 6]: 160 ± 105
- Text 1 Reconstruction 1. quantity of elements [4, 6]: 5 ± 2.3
- Text 2 Reconstruction 1 quantity of elements [4, 6]: 7 ± 2.7
- Tower of London - correct score [4, 6]: 2 ± 1.1
- Tower of London - execution time [4, 6]: 298 ± 227
- Tower of London - sum total time > 60 sec [4, 6]: 1.5 ± 3
- Tower of London -move score [4, 6]: 46 ± 25
- Wechsler memory scale, subtest V: series A [4, 6]: 6 ± 1
- Wechsler memory scale, subtest V: sum A and B [4, 6]: 10 ± 1.7
- Wechsler memory scale, subtest V: sum A and B, (T-scores) [4, 6]: 9 ± 2.3
- Wechsler memory scale, subtest VII: sum comlex [4, 6]: 3 ± 2.7
- Wechsler memory scale, subtest VII: sum simple [4, 6]: 14 ± 4
- Wechsler memory scale, subtestV: series B [4, 6]: 4 ± 1.2
- Wechsler test, subtest VII: Symbol coding [4, 6]: 5 ± 1.8
- Wisconsin CS test - conceptual level responses, T score [4, 6]: 43 ± 5.9
- Wisconsin CS test - nonperseverative errors, T score [4, 6]: 41 ± 7.9
- Wisconsin CS test - perseverative responses, T score [4, 6]: 43 ± 8.38
- Wisconsin CS test - total error - T score [4, 6]: 43 ± 6.8
- Wisconsin CS test perseverative errors, T score [4, 6]: 43 ± 8.21
- Wisconsin CS test: categories completed [4, 6]: 4 ± 1.7
- Wisconsin CS test: total correct responses [4, 6]: 79 ± 16
